Measurements from patent US20230295157A1, “3-(1H-IMIDAZOL-2-YL)-2,3,8,8A-TETRAHYDROINDOLIZIN-5(1H)-ONE DERIVATIVES USEFUL AS FACTOR XIA INHIBITORS” (JANSSEN PHARMACEUTICA NV, priority 2020, published 2023).
Read-outs that look alike come from different tables or passages of the source.

Tests used:
human plasma kallikrein = human plasma kallikrein (Homo sapiens (Human), UniProt P03952); assay: Kallikrein inhibition assay (FLINT) utilizing a quenched AMC peptide substrate; type: biochemical; conditions: 30 min preincubation, read-out: Kallikrein Kin Inh IC50
Procedure, shortened: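 Fluorogenic Z-Gly-Pro-Arg-AMC cleavage (50 μM substrate, 2 nM kallikrein, Tris pH 7.5, CaCl2, BSA, CHAPS, 2% DMSO) read kinetically at 340/440 nm for 30 min after 30-min compound pre-incubation. Compounds in 11-point 3-fold series from 1 μM; percent inhibition fitted to four-parameter equation for IC50.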

Factor XIa = Factor XIa (Homo sapiens (Human), UniProt P03951); assay: Factor XIa inhibition assay (FLINT) utilizing a fluorophore-quencher pair peptide substrate; type: biochemical; conditions: 30 min preincubation, kinetic reads over 30 min, read-out: FXIa Kin Inh IC50
Procedure, shortened: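 FXIa ([…]) preincubated 30 min with compound (11-point 3-fold dilution, top 100 nM, 2% DMSO), then 15 μM quenched FXI Arg146-based peptide added; Tris pH 7.5, CaCl2, BSA, CHAPS. Fluorescence 485/520 nm read kinetically every 5 min over 30 min at RT; IC50 by 4-parameter fit.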

[1] = kinetic reads over 30 min, Z-Gly-Pro-Arg-AMC substrate 50 μM
[2] = 5Fam-KLTRAETV-K5Tamra substrate 15 μM
[3] = 5Fam-[…]-K5Tamra substrate 15 μM

Sequence of human plasma kallikrein (P03952 391-638): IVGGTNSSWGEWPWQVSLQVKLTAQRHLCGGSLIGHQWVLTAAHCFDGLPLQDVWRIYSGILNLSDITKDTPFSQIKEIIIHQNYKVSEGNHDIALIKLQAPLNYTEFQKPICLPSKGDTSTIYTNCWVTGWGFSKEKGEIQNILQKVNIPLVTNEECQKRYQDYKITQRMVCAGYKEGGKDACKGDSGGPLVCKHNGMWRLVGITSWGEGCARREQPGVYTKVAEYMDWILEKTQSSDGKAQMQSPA
Sequence of human plasma kallikrein (P03952 20-390 partner): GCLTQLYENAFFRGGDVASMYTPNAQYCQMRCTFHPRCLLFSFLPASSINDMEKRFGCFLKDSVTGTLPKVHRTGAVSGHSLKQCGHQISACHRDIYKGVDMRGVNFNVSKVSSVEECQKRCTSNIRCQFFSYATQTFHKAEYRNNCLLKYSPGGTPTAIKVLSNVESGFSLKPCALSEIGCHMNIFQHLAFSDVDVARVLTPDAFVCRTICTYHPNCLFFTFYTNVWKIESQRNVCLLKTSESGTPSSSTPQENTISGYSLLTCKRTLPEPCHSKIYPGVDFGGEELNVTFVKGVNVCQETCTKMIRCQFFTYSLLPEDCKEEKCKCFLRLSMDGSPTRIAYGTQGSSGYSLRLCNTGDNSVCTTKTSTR
Sequence of Factor XIa (P03951 388-625): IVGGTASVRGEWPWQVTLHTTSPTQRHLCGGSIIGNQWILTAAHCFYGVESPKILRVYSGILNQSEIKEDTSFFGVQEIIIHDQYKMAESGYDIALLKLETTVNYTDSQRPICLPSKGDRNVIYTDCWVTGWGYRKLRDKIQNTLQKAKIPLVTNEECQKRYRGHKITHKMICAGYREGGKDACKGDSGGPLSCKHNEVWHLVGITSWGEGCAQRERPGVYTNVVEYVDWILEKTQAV
Sequence of Factor XIa (P03951 19-387 partner): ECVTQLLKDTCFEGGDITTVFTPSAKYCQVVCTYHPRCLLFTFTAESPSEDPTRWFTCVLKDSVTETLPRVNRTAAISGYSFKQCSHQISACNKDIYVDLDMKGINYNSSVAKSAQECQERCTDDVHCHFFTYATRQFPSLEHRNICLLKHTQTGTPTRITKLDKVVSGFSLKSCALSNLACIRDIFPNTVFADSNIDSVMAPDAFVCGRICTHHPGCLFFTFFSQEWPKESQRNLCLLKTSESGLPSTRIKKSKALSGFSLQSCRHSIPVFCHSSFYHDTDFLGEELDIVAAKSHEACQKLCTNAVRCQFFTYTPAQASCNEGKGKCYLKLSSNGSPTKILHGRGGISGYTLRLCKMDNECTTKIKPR

SMILES | IC50 (human plasma kallikrein; [1]) [µM] | IC50 (Factor XIa; [2]) [nM] | IC50 (Factor XIa; [3]) [nM] | IC50 (human plasma kallikrein; μM, kinetic reads) [µM]
NC(=O)c1ccc(-c2cnc([C@@H]3CC[C@@H]4CC(c5c(-n6cc(Cl)nn6)ccc(Cl)c5F)=CC(=O)N43)[nH]2)s1 [Example 207, 5-(2-((3S,8aR)-7-(3-Chloro-6-(4-chloro-1H-1,2,3-triazol-1-yl)-2-fluorophenyl)-5-oxo-1,2,3,5,8,8a-hexahydroindolizin-3-yl)-1H-imidazol-5-yl)thiophene-2-carboxamide] | 0.0077 | 2.5 | – | –
O=C1C=C(c2c(-n3cnnn3)ccc(Cl)c2F)C[C@H]2CC[C@@H](c3ncc(-c4ccnc(C[C@@H](O)C(F)(F)F)c4F)[nH]3)N12 (single isomer, unassigned) [Example 144, (3S,8aR)-7-(3-chloro-2-fluoro-6-(1H-tetrazol-1-yl)phenyl)-3-(5-(3-fluoro-2-((*R)-3,3,3-trifluoro-2-hydroxypropyl)pyridin-4-yl)-1H-imidazol-2-yl)-2,3,8,8a-tetrahydroindolizin-5(1H)-one] | 0.0435 | 3.1 | – | –
Cn1c(=O)[nH]c2cc(-c3cnc([C@@H]4CC[C@@H]5CC(c6c(-n7cnnn7)ccc(Cl)c6F)=CC(=O)N54)[nH]3)ccc21 (relative stereo) [Example 303, 5-(24(3S,8aR*)-7-(3-Chloro-2-fluoro-6-(1H-tetrazol-1-yl)phenyl)-5-oxo-1,2,3,5,8,8a-hexahydroindolizin-3-yl)-1H-imidazol-5-yl)-1-methyl-1H-benzo[d]imidazol-2(3H)-one] | 0.0044 | – | 0.9 | –
Nc1ccn(-c2nccc(-c3cnc([C@H]4CC[C@@H]5CC(c6c(-n7cnnn7)ccc(Cl)c6F)=CC(=O)N54)[nH]3)c2F)n1 (single isomer, unassigned) [Example 63] | 0.0062 | – | 6.9 | –
NC(=O)c1nccc(-c2cnc([C@@H]3CC[C@@H]4CC(c5c(-n6cnnn6)ccc(Cl)c5F)=CC(=O)N43)[nH]2)c1F [Example 181, 4-(2-((3S,8aR)-7-(3-chloro-2-fluoro-6-(1H-tetrazol-1-yl)phenyl)-5-oxo-1,2,3,5,8,8a-hexahydroindolizin-3-yl)-1H-imidazol-5-yl)-3-fluoropicolinamide] | 0.0178 | 8.3 | – | –
CS(=O)(=O)Nc1nccc(-c2cnc([C@@H]3CC[C@@H]4CC(c5c(-n6cnnn6)ccc(Cl)c5F)=CC(=O)N43)[nH]2)c1F [Example 367, N-(4-(2-((3S,8aR)-7-(3-chloro-2-fluoro-6-(1H-tetrazol-1-yl)phenyl)-5-oxo-1,2,3,5,8,8a-hexahydroindolizin-3-yl)-1H-imidazol-5-yl)-3-fluoropyridin-2-yl)methanesulfonamide] | 0.0075 | 0.4 | – | –
Nc1ccc(-c2cnc([C@@H]3CCC4CC(c5c(-c6ccn[nH]6)ccc(Cl)c5F)=CC(=O)N43)[nH]2)c(F)n1 (stereo partly drawn) [Example 363, (3S)-3-(5-(6-Amino-2-fluoropyridin-3-yl)-1H-imidazol-2-yl)-7-(3-chloro-2-fluoro-6-(1H-pyrazol-5-yl)phenyl)-2,3,8,8a-tetrahydroindolizin-5(1H)-one] | – | > 100 | – | > 1
Nc1ccc(-c2cnc([C@@H]3CC[C@H]4CC(c5c(-n6cnnn6)ccc(Cl)c5F)=CC(=O)N43)[nH]2)c(F)n1 [Example 359, (3S,8aS)-3-(5-(6-Amino-2-fluoropyridin-3-yl)-1H-imidazol-2-yl)-7-(3-chloro-2-fluoro-6-(1H-tetrazol-1-yl)phenyl)-2,3,8,8a-tetrahydroindolizin-5(1H)-one] | 0.011 | 0.5 | – | –
O=C(O)c1ccc(-c2c[nH]c(C3CCC4CC(c5cc(Cl)ccc5-n5cc(C(F)(F)F)nn5)=CC(=O)N43)n2)s1 (stereo not drawn) [Example 373, 5-(2-(7-(5-chloro-2-(4-(trifluoromethyl)-1H-1,2,3-triazol-1-yl)phenyl)-5-oxo-1,2,3,5,8,8a-hexahydroindolizin-3-yl)-1H-imidazol-4-yl)thiophene-2-carboxylic acid] | 0.0396 | 0.7 | – | –

Second part, the compound after the results:

IC50 (human plasma kallikrein; [1]) [µM] | IC50 (Factor XIa; [2]) [nM] | IC50 (Factor XIa; [3]) [nM] | IC50 (human plasma kallikrein; μM, kinetic reads) [µM] | SMILES
0.022 | 29.1 | – | – | N#CC1(c2nccc(-c3cnc([C@@H]4CC[C@@H]5CC(c6c(-n7cnnn7)ccc(Cl)c6F)=CC(=O)N54)[nH]3)c2F)CC1 (single isomer, unassigned) [Example 139, 1-(4-(2-((3S,8a*R)-7-(3-chloro-2-fluoro-6-(1H-tetrazol-1-yl)phenyl)-5-oxo-1,2,3,5,8,8a-hexahydroindolizin-3-yl)-1H-imidazol-5-yl)-3-fluoropyridin-2-yl)cyclopropane-1-carbonitrile]
0.0017 | 0.4 | – | – | O=C1Nc2ccc(-c3cnc([C@@H]4CC[C@@H]5CC(c6c(-n7cnnn7)ccc(Cl)c6F)=CC(=O)N54)[nH]3)c(F)c2CO1 (single isomer, unassigned) [Example 118, 6-(24(3*S,8a*R)-7-(3-chloro-2-fluoro-6-(1H-tetrazol-1-yl)phenyl)-5-oxo-1,2,3,5,8,8a-hexahydroindolizin-3-yl)-1H-imidazol-5-yl)-5-fluoro-1,4-dihydro-2H-benzo[d][1,3]oxazin-2-one]
> 0.1 | – | 92.7 | – | Nc1ccccc1-c1cnc([C@@H]2CC[C@H]3CC(c4c(-n5cnnn5)ccc(Cl)c4F)=CC(=O)N32)[nH]1 (relative stereo) [Example 308, (3S,8aS*)-3-(4-(2-Aminophenyl)-1H-imidazol-2-yl)-7-(3-chloro-2-fluoro-6-(1H-tetrazol-1-yl)phenyl)-2,3,8,8a-tetrahydroindolizin-5(1H)-one]
0.0143 | – | 30.5 | – | NC(=O)c1ccc(-c2c[nH]c([C@@H]3CC[C@H]4CC(c5c(-n6cnnn6)ccc(Cl)c5F)=CC(=O)N43)n2)cc1F [Example 198, 4-(2-((3S,8aS)-7-(3-chloro-2-fluoro-6-(1H-tetrazol-1-yl)phenyl)-5-oxo-1,2,3,5,8,8a-hexahydroindolizin-3-yl)-1H-imidazol-4-yl)-2-fluorobenzamide]
0.0303 | – | 9.5 | – | O=C1C=C(c2c(-n3cnnn3)ccc(Cl)c2F)C[C@H]2CC[C@@H](c3ncc(-c4ccnc([C@@H](O)C(F)(F)F)c4)[nH]3)N12 (relative stereo) [Example 175, (3S*,8 aR*)-7-(3-chloro-2-fluoro-6-(1H-tetrazol-1-yl)phenyl)-3-(5-(2-((R*)-2,2,2-trifluoro-1-hydroxyethyl)pyridin-4-yl)-1H-imidazol-2-yl)-2,3,8,8a-tetrahydroindolizin-5(1H)-one]
0.007 | 1.2 | – | – | COC(=O)Nc1ccc(-c2cnc([C@@H]3CCC4CC(c5c(-n6cnnn6)ccc(Cl)c5F)=CC(=O)N43)[nH]2)cn1 (stereo partly drawn) [Example 325, Methyl (5-(2-((3S)-7-(3-Chloro-2-fluoro-6-(1H-tetrazol-1-yl)phenyl)-5-oxo-1,2,3,5,8,8a-hexahydroindolizin-3-yl)-1H-imidazol-5-yl)pyridin-2-yl)carbamate]
0.0012 | 0.3 | – | – | Nc1cc(-c2[nH]c([C@@H]3CC[C@@H]4CC(c5c(-n6cnnn6)ccc(Cl)c5F)=CC(=O)N43)nc2Cl)ccn1 [Example 372, (3S,8aR)-3-(5-(2-aminopyridin-4-yl)-4-chloro-1H-imidazol-2-yl)-7-(3-chloro-2-fluoro-6-(1H-tetrazol-1-yl)phenyl)-2,3,8,8a-tetrahydroindolizin-5(1H)-one]
0.0155 | 22.5 | – | – | CCN(CCO)c1nccc(-c2cnc([C@@H]3CC[C@H]4CC(c5c(-n6cnnn6)ccc(Cl)c5F)=CC(=O)N43)[nH]2)c1F (single isomer, unassigned) [Example 135, (3S,8a*S)-7-(3-chloro-2-fluoro-6-(1H-tetrazol-1-yl)phenyl)-3-(5-(2-(ethyl(2-hydroxyethyl)amino)-3-fluoropyridin-4-yl)-1H-imidazol-2-yl)-2,3,8,8a-tetrahydroindolizin-5(1H)-one]
0.209 | 7.3 | – | – | Nc1ccc(-c2cnc([C@@H]3CC[C@@H]4CC(c5cc(Cl)ccc5-n5cnnn5)CC(=O)N43)[nH]2)c(F)n1 (stereo partly drawn) [Example 376, (3S,8aR)-3-(5-(6-amino-2-fluoropyridin-3-yl)-1H-imidazol-2-yl)-7-(5-chloro-2-(1H-tetrazol-1-yl)phenyl)hexahydroindolizin-5(1H)-one]
0.0066 | 1.7 | – | – | O=C1C=C(c2c(-n3cnnn3)ccc(Cl)c2F)C[C@H]2CC[C@@H](c3ncc(-c4ccc5cc[nH]c5c4F)[nH]3)N12 [Example 384, (3S,8aR)-7-(3-chloro-2-fluoro-6-(1H-tetrazol-1-yl)phenyl)-3-(5-(7-fluoro-1H-indol-6-yl)-1H-imidazol-2-yl)-2,3,8,8a-tetrahydroindolizin-5(1H)-one]
0.0062 | 2.9 | – | – | O=C1C=C(c2c(-n3cc(C(F)(F)F)nn3)ccc(Cl)c2F)C[C@@H]2CC[C@H](c3ncc(-c4c[nH]c5ncccc45)[nH]3)N12 (single isomer, unassigned) [Example 140, (3*R,8aS)-3-(5-(1H-pyrrolo[2,3-b]pyridin-3-yl)-1H-imidazol-2-yl)-7-(3-chloro-2-fluoro-6-(4-(trifluoromethyl)-1H-1,2,3-triazol-1-yl)phenyl)-2,3,8,8a-tetrahydroindolizin-5(1H)-one]
0.0488 | 4.2 | – | – | Cc1cc(C(=O)Nc2nccc(-c3cnc([C@@H]4CC[C@@H]5CC(c6c(-n7cnnn7)ccc(Cl)c6F)=CC(=O)N54)[nH]3)c2F)on1 [Example 5, N-[4-[2-[(3S,8aR)-7-[3-Chloro-2-fluoro-6-(tetrazol-1-yl)phenyl]-5-oxo-2,3,8,8a-tetrahydro-1H-indolizin-3-yl]-1H-imidazol-5-yl]-3-fluoro-2-pyridyl]-3-methyl-isoxazole-5-carboxamide]
